# Laboratory results reported in patent publication US11713331B2, “Benzene 1,4-bis(bisphosphonic acid)-based metal complexes, method of synthesis and applications thereof” (priority 2020, dated 2023).
# Read-outs that look alike come from different tables or passages of the source.
# Key:
# [1] = after 7 days, binding curve before reported; cited from earlier work
# [2] = Binding assay to hydroxyapatite (HA); details: 0.5 mg/mL, 20 mg HA, PBS
# Method: Hydroxyapatite (HA) treatment. […] The experiment was carried out for 0-12 days, in stirring at 120 rpm. […] The supernatant was centrifuged for 8 min (500 rcf) and the absorbance was measured at 231 nm. Solid samples were characterized by SEM-EDS, TGA, and PXRD.
# The experiment was carried out for 0-12 days, in constant stirring at 120 rpm. […] The supernatant was centrifuged for 8 min (500 rcf) and the absorbance was measured at 231 nm. Solid samples were characterized by SEM-EDS and PXRD.
# [3] = test system: human breast cancer MDA-MB-231 cell line; format: cell-based; details: 0-200 μM
# Method: (§1) Cell Culture Methods. Media with DMEM, 5% FBS, and 1% Pen-Strep were used to incubate MDA-MB-231 cells at 37° C. with 5% CO2. The osteoblast hFOB 1.19 cell line was incubated at 34° C., 5% CO2, in 1:1 DMEM:F-12 supplemented with 0.3 mg/mL G418, and 10% FBS. Cell passages were performed weekly at 80.0% confluency. Media exchanges were carried out twice every 7 d.
# (§2) Cell treatment. […] Cells (MDA-MB-231, hFOB 1.19) were seeded in 96 well plates at a density of 2.5×10^5 cells/mL. The 96 well plates were incubated at 37° C. with 5% CO2 for 24 h. Three 96 well plates were prepared per time point (24, 48, and 72 h). […] Cells were incubated at 37° C. and 5% CO2 for 24, 48, and 72 h. Control groups were treated with media (MDA-MB-231 with DMEM, 1% Pen-Strep) and (hFOB 1.19 with 1:1 DMEM:F-12, 0.3 mg/mL G418). Cell proliferation was determined after each point time of treatment. A 10% AlamarBlue® solution was previously prepared using PBS. The media was removed from all 96 well plates and 100 μL of AlamarBlue® solution was added. The 96 well plates were incubated for 4 h (MDA-MB-231 at 37° C., 5% CO2) and (hFOB 1.19 at 34° C., 5% CO2). The fluorescence was measured at 560 nm of excitation and lambda max 590 nm of emission. […] The experiments for the % RCL were performed employing the same conditions previously mentioned for the IC50 determination. All experiments were accomplished in triplicate. The GraphPad Prism 8 vs 8.3.1 was utilized to generate the IC50 curves and to plot the % RCL graphs.
# (§3) Furthermore, the cytotoxicity of these materials was also achieved using the osteoblast-like hFOB 1.19 cell line, within work, these immortalized human cells were used to simulate the human bone microenvironment (not cancerous cells). […] Control groups were treated with media (DMEM, 1% Pen-Strep, MDA-MB-231) and (1:1 DMEM:F12, 0.3 mg/mL G418, hFOB 1.19), respectively. AlamarBlue® assay was employed to determine cell proliferation after each time point.
# as §1, with “Methods—Media” for “Methods. Media”, “CO2” for “CO2,”
# (§4) Cell seeding—Both cells were seeded in 96 well plates at a density of 2.5×10^5 cells/mL. The 96 well plates were incubated at 37° C. (MDA-MB-231) and 34° C. […] Experiments were performed in triplicate.
# (§5) (MDA-MB-231) and 34° C. […] All experiments were accomplished in triplicate.
# [4] = test system: normal osteoblast-like hFOB 1.19 cell line; format: cell-based; details: 0-200 μM
# Method: as §1, §2, §3
# as §1, with “Methods—Media” for “Methods. Media”, “CO2” for “CO2,”
# as §4, §5
Compound,% Binding to HA [1] [%],% Binding to HA ([2]; 0 d) [%],% Binding to HA ([2]; 1 d) [%],% Binding to HA ([2]; 2 d) [%],% Binding to HA ([2]; 3 d) [%],% Binding to HA ([2]; 4 d) [%],"IC50 ([3]; MDA-MB-231, 24 h of treatment) [µM]","IC50 ([3]; MDA-MB-231, 48 h of treatment) [µM]","IC50 ([3]; MDA-MB-231, 72 h of treatment) [µM]","IC50 ([4]; hFOB 1.19, 24 h of treatment) [µM]","IC50 ([4]; hFOB 1.19, 48 h of treatment) [µM]","IC50 ([4]; hFOB 1.19, 72 h of treatment) [µM]"
"NCCCC(O)(P(=O)(O)O)P(=O)(O)O [ALEN, Alendronic acid]",> 95,,,,,,,,,,,
"benzene 1,4-bis(bisphosphonic acid) [BBPA]",,0,1,39,54,74,> 200,> 200,> 200,> 200,> 200,> 200
